Measurements reported in PubChem BioAssay (NCI).
Values joined by “and” are separate entries in the source; they are usually repeats but may differ in a detail not shown here. Equal values may be shown once.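 Five concentrations, 48 hours, 96-well plates. Here, GI50 denotes the concentration required for 50% inhibition of growth. TGI: total growth inhibition.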

How the values were obtained:
Assay in all cases: NCI-60 cell line screen, 48 h
SK-MEL-5 melanoma = test system: SK-MEL-5 melanoma
U251 CNS = test system: U251 CNS
NCI-H460 lung = test system: NCI-H460 lung
RPMI-8226 leukemia = test system: RPMI-8226 leukemia
SK-MEL-2 melanoma = test system: SK-MEL-2 melanoma
NCI-H226 lung = test system: NCI-H226 lung
SF-268 CNS = test system: SF-268 CNS
NCI-H522 lung = test system: NCI-H522 lung
IGROV1 ovarian = test system: IGROV1 ovarian
BT-549 breast = test system: BT-549 breast
HS 578T breast = test system: HS 578T breast

SMILES | TGI (SK-MEL-5 melanoma) [µM] | TGI (U251 CNS) | TGI (NCI-H460 lung) | TGI (RPMI-8226 leukemia) | TGI (SK-MEL-2 melanoma) [µM] | TGI (NCI-H226 lung) | TGI (SF-268 CNS) [µM] | TGI (NCI-H522 lung) | TGI (IGROV1 ovarian) | TGI (BT-549 breast) | TGI (HS 578T breast) [µM] | GI50 (HS 578T breast) [µM] | GI50 (SK-MEL-2 melanoma) | GI50 (SF-268 CNS) [µM] | GI50 (NCI-H522 lung) | GI50 (IGROV1 ovarian) | GI50 (BT-549 breast) | GI50 (NCI-H460 lung) | GI50 (RPMI-8226 leukemia) | GI50 (NCI-H226 lung)
NC(=O)NC(=O)c1cccc(C(=O)NC(N)=O)n1 | > 100 | > 100 µM | > 100 µM | > 100 µM | > 100 | > 100 µM | > 100 | > 100 µM | – | – | – | – | – | – | – | – | – | – | – | –
O=C(O)COc1cccc2ccccc(=O)c12 | > 100 | > 100 µM | > 100 µM | – | > 100 | > 100 µM | > 100 | > 100 µM | > 100 µM | > 100 µM | > 100 | – | – | – | – | – | – | – | – | –
CCN(CC)C(=O)N1CN(c2ccccc2)C2(CCN(CCCC3(c4ccc(F)cc4)OCCO3)CC2)C1=O | 26.4 | 30.2 µM | – | 30.1 µM | 33 | 53.5 µM | 45.5 | 30.2 µM | – | 28.9 µM | 37.4 | – | – | – | – | – | – | – | – | –
O=[N+]([O-])c1cc(C2ON=C(c3ccccc3)N2C23CC4CC(CC(C4)C2)C3)ccc1Cl (centres undefined) | > 100 | > 100 µM | > 100 µM | > 100 µM | > 100 | > 100 µM | > 100 | > 100 µM | > 100 µM | – | > 100 | – | – | – | – | – | – | – | – | –
COC(=O)C1=C(C(=O)OC)C2CCC1CC2=O (centres undefined) | > 100 | > 100 µM | > 100 µM | > 100 µM | > 100 | > 100 µM | > 100 | > 100 µM | > 100 µM | > 100 µM | – | – | – | – | – | – | – | – | – | –
Cc1cn(C2CC(/[N+]([O-])=N\Nc3ccc([N+](=O)[O-])cc3)C(CO)O2)c(=O)[nH]c1=O (centres undefined) | – | > 100 µM | > 100 µM | > 100 µM | – | > 100 µM | > 100 | > 100 µM | > 100 µM | > 100 µM | > 100 | – | – | – | – | – | – | – | – | –
Cc1c(OCc2cccc3ccccc23)ccc2c(=O)cc(S)oc12 | > 100 | > 100 µM | > 100 µM | – | 50.4 | > 100 µM | > 100 | 89.4 µM | > 100 µM | > 100 µM | > 100 | – | – | – | – | – | – | – | – | –
CC(C)N=C(NC#N)NS(=O)(=O)c1cnccc1NC1CCCCCCC1 | > 100 | > 100 µM | – | > 100 µM | > 100 | > 100 µM | > 100 | > 100 µM | > 100 µM | > 100 µM | > 100 | – | – | – | – | – | – | – | – | –
O=c1ccc2c(Cl)sc(Cl)c2[nH]1 | – | > 100 µM | > 100 µM | > 100 µM | > 100 | – | > 100 | > 100 µM | > 100 µM | > 100 µM | > 100 | – | – | – | – | – | – | – | – | –
N#C[C@H](c1nc2ccccc2[nH]1)c1nc2ccccc2nc1Cl | 36 | 58.9 µM | > 53.8 µM | 36.7 µM | > 59.1 | 64.7 µM | – | 16.2 µM | 30.2 µM | > 47.8 µM | > 100 | – | – | – | – | – | – | – | – | –
COC(=O)c1cc(OCc2cc(OCc3ccc(Br)cc3)cc(OCc3ccc(Br)cc3)c2)cc(OCc2cc(OCc3ccc(Br)cc3)cc(OCc3ccc(Br)cc3)c2)c1 | > 100 | > 100 µM | > 100 µM | > 100 µM | > 100 | > 100 µM | > 100 | > 100 µM | – | > 100 µM | – | – | – | – | – | – | – | – | – | –
Cc1cc(NS(=O)(=O)c2ccc(N=Nc3c(Nc4ccccc4)nn(-c4ccc(S(=O)(=O)Nc5ccncn5)cc4)c3C)cc2)no1 | > 100 | > 100 µM | – | – | > 100 | > 100 µM | – | > 100 µM | > 100 µM | – | – | – | – | – | – | – | – | – | – | –
O=C(O)Cc1ccc(-n2nnc3c(=O)[nH][nH]c(=O)c32)cc1 | > 100 | > 100 µM | > 100 µM | > 100 µM | > 100 | – | – | – | – | > 100 µM | – | – | – | – | – | – | – | – | – | –
COc1ccc(-c2nc3ccccc3c(=O)[nH]2)cc1OC | > 100 | 80.5 µM | > 100 µM | > 100 µM | > 100 | 55.8 µM | 60 | – | 81.5 µM | > 100 µM | 83.1 | – | – | – | – | – | – | – | – | –
CCCCCCCCC[C@@H]1C[C@H](O)[C@H](Cc2ccccc2)N1C(=O)OC(C)(C)C | 33.1 | 30.2 µM | – | 63.3 µM | 30.3 | – | 34.6 | 30 µM | 33.3 µM | – | – | – | – | – | – | – | – | – | – | –
COc1cc(/C=C2\CCCC3=C2N=C2SC=NN2C3c2cc(OC)c(OC)c(OC)c2)cc(OC)c1OC (centres undefined) | – | – | – | – | > 100 | – | > 100 | 8.51 µM | – | – | > 100 | 4.85 | 3.46 µM | 3.48 | 2.72 µM | – | – | – | – | –
c1ccc2c(CCNC3=NCCO3)cccc2c1 | > 10 | > 10 µM | > 10 µM | > 10 µM | > 10 | > 10 µM | > 10 | > 10 µM | > 10 µM | – | > 10 | – | – | – | – | – | – | – | – | –
Cc1ccc(S(=O)(=O)N/N=C2/C3CC4CCC2C4C3)cc1 (centres undefined) | > 100 | > 100 µM | > 100 µM | > 100 µM | – | > 100 µM | > 100 | > 100 µM | > 100 µM | > 100 µM | > 100 | – | – | – | – | – | – | – | – | –
COc1ccc(OC/C(N=Cc2cccnc2)=N/NC(=O)c2ccncc2)cc1 | – | > 100 µM | > 100 µM | > 100 µM | > 100 | > 100 µM | > 100 | 34 µM | > 100 µM | > 100 µM | > 100 | – | – | – | – | – | – | – | – | –
FC1(F)SC2CCCCCCCCCCC2C1(F)F (centres undefined) | > 100 | 63.6 µM | – | > 100 µM | 39.3 | > 100 µM | > 100 | 52.7 µM | > 100 µM | > 100 µM | > 100 | – | – | – | – | – | – | – | – | –
COC(=O)/C=C/c1cc(OC)c2c(c1)C(C(=O)OC)C(c1ccc(O)c(OC)c1)O2 (centres undefined) | – | > 45 µM and > 54.2 µM and 48.3 µM | > 100 µM and > 47.9 µM and 27.8 µM | 13.6 µM and > 60.8 µM and 15.6 µM | > 82.2 | > 100 µM and > 88.2 µM and 12.7 µM | > 100 | > 27.5 µM and 25.5 µM and 8.16 µM | > 100 µM and 35.2 µM | > 42.3 µM and 18.9 µM and > 90.5 µM | > 88.1 | 5.34 | 3.16 µM and 3.87 µM and 9.94 µM | – | 3.96 µM and 3.17 µM and 1.92 µM | 4.9 µM and 2.61 µM and 2.09 µM | 4.54 µM and 1.87 µM and 18.2 µM | 13.9 µM and 7.71 µM and 5.24 µM | 2.94 µM and 3.93 µM and 1.69 µM | 32.9 µM and 10.3 µM and 4.53 µM
O=C(CN1CCOCC1)c1ccc2c(c1)oc(=O)n2CCN1CCCCC1 | > 100 | > 100 µM | > 100 µM | > 100 µM | > 100 | > 100 µM | > 100 | – | > 100 µM | > 100 µM | > 100 | – | – | – | – | – | – | – | – | –
